# Data published in US8318954B2, “Cleavable carnitine compound” (Nou Life Sciences, Inc., priority 2006, dated 2012).
# Where two headings read alike, the source gives them in different places.
# Experiments:
# [1] = test system: rats; conditions: 10 mg/kg cisplatin s.c. seven days, oral 300 mg/kg acetyl L-carnitine, 300 mg/kg carnitine mixture, 50 mg/kg α-lipoic acid; cited from earlier work
# [2] = test system: C. elegans; assay: Visual scoring of C. elegans after overnight incubation with compound in 24 well plate; type: in vivo; conditions: DHLA1, 1:500 final concentration in well; 19 h incubation; L3/L4-stage N2 animals
# Description: (§1) One 24 well microtiter plate was set up and incubated overnight on the shaker at 20 C. Each well on the plate was set up with 600 L3/L4-stage N2 animals in NGM with a 1:20 dilution of concentrated HB101 E. coli (food source) in a volume of 300 μl. Before the animal/HB101 solution was added, test compounds were pipetted into wells. For water controls and compound stocks/dilutions in water (DHLA, NAC) 6 μl was added to each well (1:50 dilutions). For DMSO controls and compound stocks/dilutions in DMSO (LA) 3 μl was added to each well (1:100 dilutions). No OD620 measurements were taken but the animals were visually scored after 19 h incubation.
# as §1, with “at 20°” for “at 20”, “For” for “For water controls and compound stocks/dilutions in water (DHLA, NAC) 6 μl was added to each well (1:50 dilutions). For”, “DMSO (LC)” for “DMSO (LA)”, “h incubation).” for “h incubation.”
# as §1, with “at 20°” for “at 20”, “For” for “For water controls and compound stocks/dilutions in water (DHLA, NAC) 6 μl was added to each well (1:50 dilutions). For”, “DMSO (LC)” for “DMSO (LA)”, “after 22” for “after 19”, “h incubation).” for “h incubation.”
# [3] = test system: C. elegans; assay: Thermal avoidance (TAV) single intensity testing (6% laser intensity); type: in vivo
# Description: (§2) One 24 well microtiter plate was set up and incubated overnight on the shaker at 20° C. Each well on the plate was set up with 600 L3/L4-stage N2 animals in NGM with a 1:20 dilution of concentrated HB101 E. coli (food source) in a volume of 300 μl. Before the animal/HB101 solution was added, test compounds were pipetted into wells. 3 μl each for the DMSO controls and LA dilutions were added to each well (1:100 dilutions). Controls and LA dilutions were done in triplicate (total of 9 wells).
# 6% Response tests—setup: All 9 wells from the 24 well plate were used for 6% testing and the entire well contents (600 animals) were used for each test. Prior to being placed on the agar plate for TAV testing each sample was processed as described for ‘Dose Responses’.
# Dose Responses—general notes on analysis: Analysis similar as described in ‘Dose Responses’. In addition, ‘Response ratios’ as well as ‘A Speed responses’ both give measures of how much individual animals changed speed in response to the stimulus (additional information available upon request).
# as §2, with “wells. 6” for “wells. 3”, “the water” for “the DMSO”, “and compound” for “and LA”, “well (1:50” for “well (1:100”, “of 15” for “of 9”
# 6% Response tests—setup: All 15 wells from the 24 well plate were used for 6% testing) and the entire well contents (600 animals) were used for each test. Prior to being placed on the agar plate for TAV testing each sample was processed as described for ‘Dose Responses’.
# as §2, with “LC” for “LA”
# [4] = test system: C. elegans; assay: Thermal avoidance (TAV) 3 step dose response testing; type: in vivo; conditions: for effects indicating increased sensory sensitivity: 0%, 6%, 12% laser intensity
# Source text: The present invention includes a series of compounds that may be useful for increasing sensory neuron function in certain human neuropathological conditions. C. elegans contains a number of sensory neurons which are responsible for detecting a variety of external stimuli. One such stimulus (heat) can be detected and quantified in C. elegans by the use of thermal avoidance (TAV) technology available through NemaRx. The goal of this experiment was to provide an initial characterization of the compounds via TAV. Specifically, it was asked whether any of these compounds can lead to an increase in the thermal stimulus-induced behavioral response measured by TAV. N2 strain C. elegans animals were used for this project, which have ‘normal’, i.e. wildtype, sensory neuron function. Four compounds were received by NemaRx for TAV testing. These compounds were:
# as §1
# Dose Responses—setup: All of the wells from the 24 well plate were used for dose response testing and the entire well contents (600 animals) were used for each test. Prior to being placed on the agar plate for TAV testing each sample was processed as follows: • sample were transferred to glass tube containing 7 ml PBS • animals were allowed to settle for 5 minutes before most of the supernatant was removed (approx. 0.5 ml remaining in tube) • 7 ml PBS was then added, mixed and animals were allowed to settle for 5 minutes most of the supernatant was then removed • animals were removed and transferred to TAV testing plate (NRx Application pattern A) • plate was allowed to dry for 10 minutes (plate cover removed) and TAV testing was initiated. Per plate settings for the dose response experiments were as follows:
# Dose Responses—general notes on analysis: A response of the animals to a thermal stimulus (laser) which is applied to the head region can be detected both by a change in the direction of movement, as well as by a change in speed occurring within the test interval where the stimulus is applied. • direction of movement. […] Animals that show a strong change in the direction of movement, i.e. reversals, are classified as LR5 responders. […] LR5 responders show a thermal intensity-dependent increase in the speed of movement (starting off with less than <prelaser speed at low intensities up to > pre-laser speed at high intensities)
# The dose response experiments for the current project were carried out with 0% (background control), 6% and 12% settings of laser intensity. In practice, 6% is on the edge of laser intensity required to detect an increase in the number of LR5 responders. As such, 6% should be a useful intensity-setting to detect compound-induced increased sensitivity in the animals. The 12% setting was chosen because this intensity typically gives a robust increase in the number of LR5 responders.
# Total Responder speeds, ‘LR1 Responder speeds’ and ‘LR5 Responder speeds’ are shown as normalized speeds to allow better comparison between samples. For normalization purposes the average pre-laser speed is set at 1.0 and responder speeds are calculated relative to this value.
# One 24 well microtiter plate was set up and incubated overnight on the shaker at 20° C. Each well on the plate was set up with 600 L3/L4-stage N2 animals in NGM with a 1:20 dilution of concentrated HB101 E. coli (food source) in a volume of 300 μl. […]
# [5] = test system: patients with chronic critical limb ischaemia; conditions: 1.2 g/day i.v. infusion for two weeks with calcium heparin 25,000 U/day s.c.; over baseline; cited from earlier work
# [6] = test system: male patients with intermediate claudication; conditions: cited from earlier work; for TcPCO: after treatment
# [7] = test system: C. elegans; assay: Toxicity testing in C. elegans, 96 well plate, bacterial clearance (OD620); type: in vivo; conditions: highest concentration tested, 8 mM, L1-stage N2 animals, OD620 up to 44 hours, HCl
# Description: The work plan included a i) characterization of the compounds for toxicity in C. elegans and then, using subtoxic concentrations, a ii) characterization of compound effects on neuronal sensitivity as detected by TAV technology. Toxicity characterization follows a well established standard operating protocol used in previous toxicity-type assays in C. elegans. The initial TAV characterization of compound-mediated effects on C. elegans used a number of compound concentrations and incubation times that were selected by NemaRx as being most likely to detect any TAV-related effects that the compounds may have. […] 0% provides a ‘background’ measure, 6% typically gives intermediate TAV responses (and as such should provide a good starting point to detect compound-mediated increased TAV responses), and 12% usually gives robust responses. No obvious effects were detected for either of the four compounds. While the experimental setup provides a good first pass, the limitation lies in the relatively small number of animals that are assayed at each intensity (30). Subtle effects compound-mediated up-regulation at 6% laser intensity may be missed. • Single Intensity Testing: The two highest non-toxic compound concentrations for each of the four compounds were tested at 6% laser intensity. The number of datapoints collected was between 50-80 LA and >100 for the three other compounds. […] The experiment was carried out in quadruplicate. […] Stock Dilution Setup
# Two 96 well microtiter plates set up which were incubated at 20 C (both 96 well plates were identical, i.e. the experiment was done in duplicate). Each well on the plates was set up with 100 L1-stage N2 animals in NGM with a 1:20 dilution of concentrated HB101 E. coli (food source) in a volume of 50 μl. Compounds (see below) were then added to the wells. For water controls and compound stocks/dilutions in water (DH LA, NAC) 1 μl was added to each well (1:50 dilutions). For DMSO controls and compound stocks/dilutions in DMSO (LA) 0.5 μl was added to each well (1:100 dilutions). […]
# [8] = test system: mice and rats; conditions: individually or in combination at high doses, mice and rats; cited from earlier work
# [9] = test system: rats; conditions: cited from earlier work
# [10] = after 600 mg i.v. infusion, compared to pre-treatment values
compound,measurement,setting,value
N.N.[Cl][Pt][Cl] [Cisplatin],Equilibrium time,[1],8.4 ± 0.8 s
"O=C(O)CCCC[C@@H](S)CCS (racemic) [DHLA, Dihydrolipoic acid]",visual scoring of well clearance,[2],some bacteria remaining
same,effect such as increased percentage of LR5 responders,"[3]; 1:1,000 or 1:2,500",No obvious effect detected
same,"response of animals that show a LR5 response ('Responder ratios', 'A Speed responses')","[3]; 1:2,500 concentration",slightly stronger response
same,effects indicating increased sensory sensitivity,[4]; even at highest concentration of 1:500,No obvious effects detected
same,percentage of LR5 responders at 6%,[4]; second highest concentration (DHLA2),relatively high
CCC(=O)O[C@H](CC(=O)[O-])C[N+](C)(C)C [L-Propionyl Carnitine],decrease in mean pain score,[5],83%
same,decrease in mean ulcer size (diameter),[5],48%
same,increase in mean pain free walking distance (PWD),[5],78%
same,Perfusion units,[6]; [10],did not change significantly
same,TcPO,[6]; [10],did not change significantly
same,resting TcPCO,[6]; after 600 mg i.v. infusion,no significant effects
same,TcPCO,[6]; at hypoxia point,90.2 mm Hg
same,Mean laser-Doppler power spectrum,"[6]; at rest, after 600 mg i.v. infusion",0.89 units
same,Mean laser-Doppler power spectrum,"[6]; during reperfusion, after 600 mg i.v. infusion",2.24 units
same,TcPCO,[6]; during reperfusion,103.5 mm Hg
"CC(=O)O[C@H](CC(=O)O)C[N+](C)(C)C.[Cl-] [NAC, N-Acetyl carnitine HCl]",toxicity,[7],No toxic effects
same,toxicity,[7]; listed as N-Acetyl carnitine,no toxicity observed
same,effects indicating increased sensory sensitivity,[3]; 8 mM or 4 mM,No effects detected
same,effects indicating increased sensory sensitivity,[4]; even at highest concentration of 8 mM,No obvious effects detected
C[N+](C)(C)CC(O)CC(=O)[O-] (centres unmarked) [Carnitine],tolerability and toxicity,[8],good tolerability and limited toxicity
same,area of skin flap necrosis,"[9]; group 1, 50 mg/kg/day for 1 week",12.55 cm^2
same,area of skin flap necrosis,"[9]; group 2, 100 mg/kg/day for 1 week",9.23 cm^2
